Six molecules from patent US10865334B2, “Process for extracting materials from biological material” (Universiteit Leiden, priority 2010, dated 2020) can be followed below.

A word on the solubility: it is the concentration that dissolves in the medium under given conditions.

A short description of data set [1]: solubility data in some typical Des at 40° C. Format: physicochemical. The note with it: for solubility in GCH / solubility in H2O / solubility in LGH / solubility in PdCH / solubility in SoCH: n = 3.
A short description of data set [2]: solubility of flavonoids in naturally occurring deep eutectic solvents. Format: physicochemical. As to the method:
First the solubility of natural products, which are not soluble in water, was evaluated in a few selected natural deep eutectic solvents. Several flavonoids were chosen as the natural water-insoluble products, because they are one of the most abundant water-insoluble plant secondary metabolites. Up to now more than 500 flavonoids have been known. Most of these flavonoids occur in their glycosides forms (bounded to a sugar molecule) in plants. In spite of large abundance of flavonoids in plants, both the glycoside and the aglycone (non-sugar) part are not soluble in water. […] The structure of these flavonoids are shown below.

The mark [3] stands for this setting: solvent GCH (Glc:Ch:H2O 1:2.5:2.5).
The mark [4] stands for this setting: solvent LGH (Lac:Glc:H2O 5:1:2).
Setting [5] is: solvent PdCH (1,2Prop:Ch:H20 1:1:1).
Setting [6] is: deep eutectic solvent GCH, organic solvent or mixture, solvent GCH (Glc:Ch:H2O 1:2.5:2.5), n = 3, read-out: solubility in GCH.
Where [7] appears, read: deep eutectic solvent LGH, organic solvent or mixture, solvent LGH (Lac:Glc:H2O 5:1:2), n = 3, read-out: solubility in LGH.
Where [8] appears, read: deep eutectic solvent PdCH, organic solvent or mixture, solvent PdCH (1,2Prop:Ch:H20 1:1:1), n = 3, read-out: solubility in PdCH.
Setting [9] is: deep eutectic solvent SoCH, organic solvent or mixture, solvent SoCH (So:Ch:H2O), n = 3, read-out: solubility in SoCH.
[10] abbreviates: organic solvent or mixture, Solubility in Fructose + Choline chloride.
Where [11] appears, read: organic solvent or mixture, Solubility in Glucose + Choline chloride.

≈ marks a conversion by molar mass, not a printed value. A value given as a limit tells only on which side of the number the result lay.

Turning to `O=C(/C=C/c1ccc(O)cc1)C1=C(O)[C@](O)([C@@H]2O[C@H](CO)[C@@H](O)[C@H](O)[C@H]2O)C(O)=C(/C=C2/C(=O)C(C(=O)/C=C/c3ccc(O)cc3)=C(O)[C@@](O)([C@@H]3O[C@H](CO)[C@@H](O)[C@H](O)[C@H]3O)C2=O)C1=O` [carthamin], the “solubility in GCH” value in data set [1] (setting [3]) turned out to be 27.20 ± 0.39 mg/mL (≈ 29.9 mM). In addition, the “solubility in H2O” value in data set [1] (solvent H2O) came out at 1.43 ± 0.01 mg/mL (≈ 1.57 mM). In addition, the “solubility in LGH” value in data set [1] (setting [4]) was found to be 1.24 ± 0.21 mg/mL (≈ 1.36 mM). Further, the “solubility in PdCH” value in data set [1] (setting [5]) came out at 22.47 ± 1.00 mg/mL (≈ 24.7 mM). Besides, the “solubility in SoCH” value in data set [1] (solvent SoCH (So:Ch:H2O)) turned out to be 14.05 ± 0.66 mg/mL (≈ 15.4 mM).
The like results for `CC1C(=O)OC2C(O)C34C5CC(C(C)(C)C)C36C(OC(=O)C6O)OC4(C(=O)O5)C12O` (centres unmarked) [ginkgolide B] were, in that order, 5.85 ± 0.42 mg/mL (≈ 13.8 mM), 0.15 ± 0.00 mg/mL (≈ 0.353 mM), 1.93 ± 0.31 mg/mL (≈ 4.55 mM), 78.42 ± 14.45 mg/mL (≈ 185 mM) and 1.70 ± 0.01 mg/mL (≈ 4.01 mM).
Turning to `O=c1c(O)c(-c2ccc(O)c(O)c2)oc2cc(O)cc(O)c12` [quercetin], the solubility in data set [1] (setting [6]) was 20.1 ± 0.41 mg/mL (≈ 66.4 mM); in data set [1] (setting [7]), 1.72 ± 0.09 mg/mL (≈ 5.69 mM); in data set [1] (setting [8]) it was 205 ± 7.31 mg/mL (≈ 679 mM); in data set [1] (setting [9]) it was 146 ± 2.82 mg/mL (≈ 483 mM); in data set [2] (setting [10]), 23.3 ± 2.54 mg/mL; in data set [2] (setting [11]) it was 21.6 ± 0.94 mg/mL. In data set [2] (water, Solubility in Water), this molecule gave a solubility of 0.3 ± 0.002 mg/mL (≈ 0.993 mM). In addition, the “Solubility in Sucrose + Choline chloride” value in data set [2] was 15.63 ± 0.57 mg/mL.
Turning to `C[C@@H]1O[C@@H](Oc2c(-c3ccc(O)c(O)c3)oc3cc(O)cc(O)c3c2=O)[C@H](O)[C@H](O)[C@H]1O` [Quercitrin, quercetin-3-O-rhamnoside], the solubility in data set [2] (organic solvent or mixture, deep eutectic solvent Fructose + Choline chloride, read-out: Solubility in Fructose + Choline chloride) was 11.2 ± 0.64 mg/mL; in data set [2] (organic solvent or mixture, deep eutectic solvent Glucose + Choline chloride, read-out: Solubility in Glucose + Choline chloride), 7.81 ± 0.2 mg/mL; in data set [2] (organic solvent or mixture, deep eutectic solvent Sucrose + Choline chloride, read-out: Solubility in Sucrose + Choline chloride) it was 12.7 ± 0.38 mg/mL; in data set [2] (water, read-out: Solubility in Water), 0.159 ± 0.001 mg/mL (≈ 0.355 mM).
As to `C[C@@H]1O[C@@H](OC[C@H]2O[C@@H](Oc3c(-c4ccc(O)c(O)c4)oc4cc(O)cc(O)c4c3=O)[C@H](O)[C@@H](O)[C@@H]2O)[C@H](O)[C@H](O)[C@H]1O` [rutin, quercetin-3-O-rhanmoglucoside], the solubility in data set [1] (setting [6]) was 122 ± 1.45 mg/mL (≈ 199 mM); in data set [1] (setting [7]), 8.14 ± 0.79 mg/mL (≈ 13.3 mM); in data set [1] (setting [8]), 353 ± 31.2 mg/mL (≈ 578 mM); in data set [1] (setting [9]) it was 149 ± 2.61 mg/mL (≈ 244 mM); in data set [1] (water, solvent H2O, n = 3, read-out: solubility in H2O) it was 0.028 mg/mL (≈ 0.0459 mM); in data set [2] (setting [10]), 10.9 ± 1.7 mg/mL. For the same molecule, the solubility in data set [2] (setting [11]) was 4.78 ± 0.84 mg/mL; in data set [2] (organic solvent or mixture, Solubility in Sucrose + Choline chloride), 2.41 ± 0.18 mg/mL; in data set [2] (water, Solubility in Water), below 0.001 mg/mL.
Take `CC(=O)O[C@H]1C(=O)[C@@]2(C)[C@H]([C@H](OC(=O)c3ccccc3)[C@]3(O)C[C@H](OC(=O)[C@H](O)[C@@H](NC(=O)c4ccccc4)c4ccccc4)C(C)=C1C3(C)C)[C@]1(OC(C)=O)CO[C@@H]1C[C@@H]2O` [paclitaxel]: the values for the solubility in data set [1] (setting [7]), in data set [1] (setting [8]) and in data set [1] (setting [9]) were 5.39 ± 0.55 mg/mL (≈ 6.31 mM), 11.7 ± 0.68 mg/mL (≈ 13.7 mM) and 0.59 ± 0.01 mg/mL (≈ 0.691 mM), respectively. For the same molecule, the “solubility in GCH” value in data set [1] (setting [3]) amounted to 0.83 ± 0.16 mg/mL (≈ 0.972 mM).
